Laboratory results: paper PMC5218480 (PLoS ONE, 2017)

Test system: MV-4-11 cells
Assay: Gene expression microarray analysis (Affymetrix PrimeView) and GSEA
Type: cell-based, human
Set-up: RFU PODN (11730768_x_at) / Fold change /veh PODN (11730768_x_at) / RFU LINC00158 (11744669_a_at) / Fold change /veh LINC00158 (11744669_a_at) / RFU DUSP10 (11751237_a_at) / Fold change /veh DUSP10 (11751237_a_at) / RFU ID3 (11757404_x_at) / Fold change /veh ID3 (11757404_x_at) / RFU PLEKHG5 (11737974_s_at) / Fold change /veh PLEKHG5 (11737974_s_at) / RFU LRRC4B (11730491_at) / Fold change /veh LRRC4B (11730491_at) / RFU GIMAP4 (11747438_a_at) / Fold change /veh GIMAP4 (11747438_a_at) / RFU KRT8 (11758183_x_at) / Fold change /veh KRT8 (11758183_x_at) / RFU CNN1 (11734310_a_at) / Fold change /veh CNN1 (11734310_a_at) / RFU VPS37D (11726825_at) / Fold change /veh VPS37D (11726825_at) / RFU C10orf10 (11716522_x_at) / Fold change /veh C10orf10 (11716522_x_at) / RFU KIR2DL2 /// KIR2DL4 /// KIR2DL5A /// KIR2DL5B /// KIR2DS1 /// KIR2DS2 /// KIR2DS3 /// KIR2DS4 /// KIR3DL3 /// KIR3DL3 /// KIR3DS1 (11738374_at) / Fold change /veh KIR2DL2 /// KIR2DL4 /// KIR2DL5A /// KIR2DL5B /// KIR2DS1 /// KIR2DS2 /// KIR2DS3 /// KIR2DS4 /// KIR3DL3 /// KIR3DL3 /// KIR3DS1 (11738374_at) / RFU C1QL1 (11718748_at) / Fold change /veh C1QL1 (11718748_at) / RFU TMPRSS4 (11747572_a_at) / Fold change /veh TMPRSS4 (11747572_a_at) / RFU HAMP (11756126_x_at) / Fold change /veh HAMP (11756126_x_at) / RFU RNFT2 (11725882_a_at) / Fold change /veh RNFT2 (11725882_a_at) / RFU NR4A2 (11747474_a_at) / Fold change /veh NR4A2 (11747474_a_at) / RFU ABCC12 (11746883_a_at) / Fold change /veh ABCC12 (11746883_a_at) / RFU TMEM136 (11760407_x_at) / Fold change /veh TMEM136 (11760407_x_at) / RFU CLDN22 /// WWC2 (11732394_at) / Fold change /veh CLDN22 /// WWC2 (11732394_at) / RFU HLA-DPB1 (11760878_x_at) / Fold change /veh HLA-DPB1 (11760878_x_at) / RFU SPINT1 (11716480_a_at) / Fold change /veh SPINT1 (11716480_a_at) / RFU GAP43 (11754022_s_at) / Fold change /veh GAP43 (11754022_s_at) / RFU A4GNT (11735810_at) / Fold change /veh A4GNT (11735810_at) / RFU PRB3 (11715151_x_at) / Fold change /veh PRB3 (11715151_x_at) / RFU TUBB4B (11761932_at) / Fold change /veh TUBB4B (11761932_at) / RFU CAPN14 (11732068_a_at) / Fold change /veh CAPN14 (11732068_a_at) / RFU TMCC2 (11721928_a_at) / Fold change /veh TMCC2 (11721928_a_at) / RFU IRGQ (11745062_a_at) / Fold change /veh IRGQ (11745062_a_at) / RFU FAM174B (11720279_a_at) / Fold change /veh FAM174B (11720279_a_at) / RFU TMPRSS4 (11748680_a_at) / Fold change /veh TMPRSS4 (11748680_a_at) / RFU FAM212B (11763350_a_at) / Fold change /veh FAM212B (11763350_a_at) / RFU PLEKHG5 (11743358_a_at) / Fold change /veh PLEKHG5 (11743358_a_at) / RFU ZSCAN30 (11745921_a_at) / Fold change /veh ZSCAN30 (11745921_a_at) / RFU CMKLR1 (11741424_a_at) / Fold change /veh CMKLR1 (11741424_a_at) / RFU LOC101060620 /// MAPK8IP1 (11723275_at) / Fold change /veh LOC101060620 /// MAPK8IP1 (11723275_at) / RFU SPTSSB (11747773_x_at) / Fold change /veh SPTSSB (11747773_x_at) / RFU PRSS12 (11739890_at) / Fold change /veh PRSS12 (11739890_at) / RFU BIN1 (11741810_x_at) / Fold change /veh BIN1 (11741810_x_at) / RFU WNT11 (11732464_a_at) / Fold change /veh WNT11 (11732464_a_at) / RFU C10orf10 (11716521_a_at) / Fold change /veh C10orf10 (11716521_a_at) / RFU C5orf56 (11738089_at) / Fold change /veh C5orf56 (11738089_at) / RFU CYB561 (11721691_x_at) / Fold change /veh CYB561 (11721691_x_at) / RFU ANKRD19P (11752326_a_at) / Fold change /veh ANKRD19P (11752326_a_at) / RFU OR2T12 /// OR2T33 /// OR2T8 (11738714_s_at) / Fold change /veh OR2T12 /// OR2T33 /// OR2T8 (11738714_s_at) / RFU VCAN (11748164_a_at) / Fold change /veh VCAN (11748164_a_at) / RFU JSRP1 (11732532_at) / Fold change /veh JSRP1 (11732532_at) / RFU KRTAP10-11 (11738290_x_at) / Fold change /veh KRTAP10-11 (11738290_x_at) / RFU MYO3A (11730013_a_at) / Fold change /veh MYO3A (11730013_a_at) / RFU EBF3 (11725865_a_at) / Fold change /veh EBF3 (11725865_a_at) / RFU CAMK2N1 (11719241_x_at) / Fold change /veh CAMK2N1 (11719241_x_at) / RFU C5orf56 (11738088_a_at) / Fold change /veh C5orf56 (11738088_a_at) / RFU OLFML3 (11715873_a_at) / Fold change /veh OLFML3 (11715873_a_at) / RFU LOC100653217 /// NTM (11731650_a_at) / Fold change /veh LOC100653217 /// NTM (11731650_a_at) / RFU MAPK11 (11762145_a_at) / Fold change /veh MAPK11 (11762145_a_at) / RFU FIZ1 (11724087_x_at) / Fold change /veh FIZ1 (11724087_x_at) / RFU OASL (11726364_x_at) / Fold change /veh OASL (11726364_x_at) / RFU SOX15 (11748057_x_at) / Fold change /veh SOX15 (11748057_x_at) / RFU CD79A (11719716_a_at) / Fold change /veh CD79A (11719716_a_at) / RFU HIST1H1D (11736915_at) / Fold change /veh HIST1H1D (11736915_at) / RFU CASKIN2 (11723855_a_at) / Fold change /veh CASKIN2 (11723855_a_at) / RFU LOC730098 (11760151_x_at) / Fold change /veh LOC730098 (11760151_x_at) / RFU OR4N2 (11742367_at) / Fold change /veh OR4N2 (11742367_at) / RFU PRRT2 (11749266_a_at) / Fold change /veh PRRT2 (11749266_a_at) / RFU SNX32 (11753110_a_at) / Fold change /veh SNX32 (11753110_a_at) / RFU CDHR5 (11726645_a_at) / Fold change /veh CDHR5 (11726645_a_at) / RFU RCAN1 (11760418_a_at) / Fold change /veh RCAN1 (11760418_a_at) / RFU FAM167A (11723789_a_at) / Fold change /veh FAM167A (11723789_a_at) / RFU FAM26E (11764081_at) / Fold change /veh FAM26E (11764081_at) / RFU ISYNA1 (11749810_s_at) / Fold change /veh ISYNA1 (11749810_s_at) / RFU ACY1 (11761880_at) / Fold change /veh ACY1 (11761880_at) / RFU 11764098_at / Fold change /veh 11764098_at / RFU SAMD14 (11745864_x_at) / Fold change /veh SAMD14 (11745864_x_at) / RFU NPB (11741838_a_at) / Fold change /veh NPB (11741838_a_at) / RFU TMPRSS6 (11731388_a_at) / Fold change /veh TMPRSS6 (11731388_a_at) / RFU KRTAP10-2 (11738614_at) / Fold change /veh KRTAP10-2 (11738614_at) / RFU ARHGAP8 /// PRR5-ARHGAP8 (11727945_x_at) / Fold change /veh ARHGAP8 /// PRR5-ARHGAP8 (11727945_x_at) / RFU KRTAP5-7 /// NADSYN1 (11734609_at) / Fold change /veh KRTAP5-7 /// NADSYN1 (11734609_at) / RFU RASL12 (11751679_a_at) / Fold change /veh RASL12 (11751679_a_at) / RFU CDKN2B (11736163_a_at) / Fold change /veh CDKN2B (11736163_a_at) / RFU PRF1 (11729649_at) / Fold change /veh PRF1 (11729649_at) / RFU, ZNF638 /// ZNF638-IT1 / Fold change vs veh, ZNF638 /// ZNF638-IT1 / RFU, PANK3 / Fold change vs veh, PANK3 / RFU, SH3YL1 / Fold change vs veh, SH3YL1 / RFU, ZEB2 / Fold change vs veh, ZEB2 / RFU, NRIP1 / Fold change vs veh, NRIP1 / RFU, PTTG1IP / Fold change vs veh, PTTG1IP / RFU, CAPN2 / Fold change vs veh, CAPN2 / RFU, MED14 / Fold change vs veh, MED14 / RFU, SNORA58 / Fold change vs veh, SNORA58 / RFU, C1orf63 / Fold change vs veh, C1orf63 / RFU, LRRFIP1 / Fold change vs veh, LRRFIP1 / RFU, NDUFAF7 / Fold change vs veh, NDUFAF7 / RFU, SLC12A2 / Fold change vs veh, SLC12A2 / RFU, IBTK / Fold change vs veh, IBTK / RFU, ESF1 / Fold change vs veh, ESF1 / Fold change vs veh, TMEM50B / RFU, TAOK1 / Fold change vs veh, TAOK1 / RFU, ACBD3 / Fold change vs veh, ACBD3 / RFU, TMA16 / Fold change vs veh, TMA16 / RFU, RWDD3 / Fold change vs veh, RWDD3 / RFU, BCAT1 / Fold change vs veh, BCAT1 / RFU, EDEM3 / Fold change vs veh, EDEM3 / RFU, TMEM33 / Fold change vs veh, TMEM33 / RFU, WDR75 / Fold change vs veh, WDR75 / RFU, AHCTF1 / Fold change vs veh, AHCTF1 / RFU, TFRC / Fold change vs veh, TFRC / RFU, ZDHHC17 / Fold change vs veh, ZDHHC17 / RFU, NOM1 / Fold change vs veh, NOM1 / RFU, ARL8B / Fold change vs veh, ARL8B / RFU, ZBTB11 / Fold change vs veh, ZBTB11 / RFU, TAMM41 / Fold change vs veh, TAMM41 / RFU, KIAA1704 /// LOC100996395 / Fold change vs veh, KIAA1704 /// LOC100996395 / RFU, ING1 / Fold change vs veh, ING1 / RFU, TRMT61B / Fold change vs veh, TRMT61B / RFU, FUBP3 / Fold change vs veh, FUBP3 / RFU, TP53 / Fold change vs veh, TP53 / RFU, TNKS2 / Fold change vs veh, TNKS2 / RFU, ZFP14 / Fold change vs veh, ZFP14 / RFU, ACTR2 / Fold change vs veh, ACTR2 / RFU, PPP3R1 / Fold change vs veh, PPP3R1 / RFU, PIK3R1 / Fold change vs veh, PIK3R1 / RFU, HNRNPA1 / Fold change vs veh, HNRNPA1 / RFU, RNF170 / Fold change vs veh, RNF170 / RFU, ZNF28 / Fold change vs veh, ZNF28 / RFU, RNGTT / Fold change vs veh, RNGTT / RFU, OGT / Fold change vs veh, OGT / RFU, BRD1 / Fold change vs veh, BRD1 / RFU, MARS / Fold change vs veh, MARS / RFU, ZNF655 / Fold change vs veh, ZNF655 / RFU, FAHD1 / Fold change vs veh, FAHD1 / RFU, BDP1 / Fold change vs veh, BDP1 / RFU, LRRCC1 / Fold change vs veh, LRRCC1 / RFU, ARID1A / Fold change vs veh, ARID1A / RFU, ZNF146 / Fold change vs veh, ZNF146 / RFU, ZNF330 / Fold change vs veh, ZNF330 / RFU, GPN3 / Fold change vs veh, GPN3 / RFU, C9orf123 / Fold change vs veh, C9orf123 / RFU, N4BP2L2 / Fold change vs veh, N4BP2L2 / RFU, ARFIP1 / Fold change vs veh, ARFIP1 / RFU, FAM179B / Fold change vs veh, FAM179B / RFU, BCL10 / Fold change vs veh, BCL10 / RFU, UHRF1BP1L / Fold change vs veh, UHRF1BP1L / RFU, BET1 / Fold change vs veh, BET1 / RFU, CNOT2 / Fold change vs veh, CNOT2 / RFU, ZNF268 / Fold change vs veh, ZNF268 / Fold change vs veh, ZNF507 / RFU, DGCR2 / Fold change vs veh, DGCR2 / RFU, WDSUB1 / Fold change vs veh, WDSUB1 / Fold change vs veh, HSP90B1 /// MIR3652 / RFU, ADSS / Fold change vs veh, ADSS / RFU, GK / Fold change vs veh, GK / RFU, ZNF148 / Fold change vs veh, ZNF148 / RFU, TAF9 / Fold change vs veh, TAF9 / RFU, SLC1A5 / Fold change vs veh, SLC1A5 / RFU, SLMO2 / Fold change vs veh, SLMO2 / RFU, ABCC4 / Fold change vs veh, ABCC4 / RFU, LOC101060439 /// RAP1B / Fold change vs veh, LOC101060439 /// RAP1B / RFU, RFX7 / Fold change vs veh, RFX7 / RFU, GTPBP10 / Fold change vs veh, GTPBP10 / RFU, CNEP1R1 / Fold change vs veh, CNEP1R1 / RFU, BIVM-ERCC5 /// ERCC5 / Fold change vs veh, BIVM-ERCC5 /// ERCC5 / RFU, ILF3 / Fold change vs veh, ILF3 / RFU 11762660_at / Fold change /veh 11762660_at / RFU VCAN (11757783_s_at) / Fold change /veh VCAN (11757783_s_at) / RFU DDX43 (11728927_at) / Fold change /veh DDX43 (11728927_at) / RFU KRT8 (11758188_x_at) / Fold change /veh KRT8 (11758188_x_at) / RFU NKD1 (11759106_at) / Fold change /veh NKD1 (11759106_at) / RFU SRD5A1 (11742802_a_at) / Fold change /veh SRD5A1 (11742802_a_at) / RFU TPSAB1 /// TPSB2 (11721975_s_at) / Fold change /veh TPSAB1 /// TPSB2 (11721975_s_at) / RFU GSTM3 (11746129_a_at) / Fold change /veh GSTM3 (11746129_a_at) / RFU IL23R (11737362_x_at) / Fold change /veh IL23R (11737362_x_at) / RFU TMEM51 (11727254_a_at) / Fold change /veh TMEM51 (11727254_a_at) / RFU PIWIL2 (11732686_x_at) / Fold change /veh PIWIL2 (11732686_x_at) / RFU ORM1 (11744905_x_at) / Fold change /veh ORM1 (11744905_x_at) / RFU CCDC152 (11743942_at) / Fold change /veh CCDC152 (11743942_at) / RFU ECM1 (11717891_a_at) / Fold change /veh ECM1 (11717891_a_at) / RFU IL23R (11748794_a_at) / Fold change /veh IL23R (11748794_a_at) / RFU TNFAIP8L3 (11732012_x_at) / Fold change /veh TNFAIP8L3 (11732012_x_at) / RFU MBOAT4 (11741988_at) / Fold change /veh MBOAT4 (11741988_at) / RFU 11764193_at / Fold change /veh 11764193_at / RFU TMEM53 (11763286_at) / Fold change /veh TMEM53 (11763286_at) / RFU MAGEB2 (11727129_at) / Fold change /veh MAGEB2 (11727129_at) / RFU TMEM200A (11744735_a_at) / Fold change /veh TMEM200A (11744735_a_at) / RFU CCDC152 (11751479_a_at) / Fold change /veh CCDC152 (11751479_a_at) / RFU FAM211A (11726209_a_at) / Fold change /veh FAM211A (11726209_a_at) / RFU RGS16 (11746705_a_at) / Fold change /veh RGS16 (11746705_a_at) / RFU VCAN (11755009_s_at) / Fold change /veh VCAN (11755009_s_at) / RFU RHOB (11743442_s_at) / Fold change /veh RHOB (11743442_s_at) / RFU RGS16 (11720943_a_at) / Fold change /veh RGS16 (11720943_a_at) / RFU RGS16 (11720944_at) / Fold change /veh RGS16 (11720944_at) / RFU, VPS4B / Fold change vs veh, VPS4B / RFU, CREB1 / Fold change vs veh, CREB1 / RFU, DNAJC13 / Fold change vs veh, DNAJC13 / RFU, GNAQ / Fold change vs veh, GNAQ / RFU, CDK5R1 / Fold change vs veh, CDK5R1 / RFU, ZRANB3 / Fold change vs veh, ZRANB3 / RFU, CUL4A / Fold change vs veh, CUL4A / RFU, CCNY / Fold change vs veh, CCNY / RFU, UFL1 / Fold change vs veh, UFL1 / RFU, COG3 / Fold change vs veh, COG3 / RFU, DIAPH2 / Fold change vs veh, DIAPH2 / RFU, SKA2 / Fold change vs veh, SKA2 / RFU, AFF3 / Fold change vs veh, AFF3 / RFU, LMF1 / Fold change vs veh, LMF1 / RFU, IPO11 / Fold change vs veh, IPO11 / RFU, DFFB / Fold change vs veh, DFFB / RFU, FOXP1 / Fold change vs veh, FOXP1 / RFU, CARD8 / Fold change vs veh, CARD8 / RFU, STRN3 / Fold change vs veh, STRN3 / RFU, ADK / Fold change vs veh, ADK / RFU, RASSF2 / Fold change vs veh, RASSF2 / RFU, WIPF1 / Fold change vs veh, WIPF1 / RFU, LARP1B / Fold change vs veh, LARP1B / RFU, RASA1 / Fold change vs veh, RASA1 / RFU, RB1 / Fold change vs veh, RB1 / RFU, PPFIA1 / Fold change vs veh, PPFIA1 / RFU, MAT2A / Fold change vs veh, MAT2A / RFU, CCT5 / Fold change vs veh, CCT5 / RFU, WDR92 / Fold change vs veh, WDR92 / RFU, CUX1 / Fold change vs veh, CUX1 / RFU, TTC7A / Fold change vs veh, TTC7A / RFU, TMEM135 / Fold change vs veh, TMEM135 / RFU, DEPTOR / Fold change vs veh, DEPTOR / RFU, CPM / Fold change vs veh, CPM / RFU, DNAJB6 / Fold change vs veh, DNAJB6 / RFU, CACNA2D3 / Fold change vs veh, CACNA2D3 / RFU, DTX4 / Fold change vs veh, DTX4 / RFU, TFCP2 / Fold change vs veh, TFCP2 / RFU, GMCL1 /// GMCL1P1 / Fold change vs veh, GMCL1 /// GMCL1P1 / RFU, AEBP2 / Fold change vs veh, AEBP2 / RFU, SNHG1 /// SNORD22 /// SNORD25 /// SNORD26 /// SNORD27 /// SNORD28 /// SNORD29 /// SNORD31 / Fold change vs veh, SNHG1 /// SNORD22 /// SNORD25 /// SNORD26 /// SNORD27 /// SNORD28 /// SNORD29 /// SNORD31 / Fold change (Aza/veh), C12orf56 (ProbeSet 11735607_a_at) / Fold change (ACY-1035/veh), C12orf56 (ProbeSet 11735607_a_at) / Fold change (Aza/veh), FGFR1OP (ProbeSet 11751329_s_at) / Fold change (ACY-1035/veh), FGFR1OP (ProbeSet 11751329_s_at) / Fold change (Aza/veh), VPS36 (ProbeSet 11739960_a_at) / Fold change (ACY-1035/veh), VPS36 (ProbeSet 11739960_a_at) / RFU SYPL1 (11715823_x_at) / Fold change /veh SYPL1 (11715823_x_at) / RFU IGFBP7 (11715501_s_at) / Fold change /veh IGFBP7 (11715501_s_at) / RFU REEP3 (11722064_at) / Fold change /veh REEP3 (11722064_at) / RFU IGLL1 (11728026_x_at) / Fold change /veh IGLL1 (11728026_x_at): dose or concentration left out as unconfirmed
Details: ProbeSet 11732281_s_at; LIST D

For `Nc1ncn([C@@H]2O[C@H](CO)[C@@H](O)[C@H]2O)c(=O)n1` [azacitidine], the “RFU, FOXP1” value was 174.32 RFU.
